# Results taken from ChEMBL document CHEMBL4177641, “Identification of an allosteric benzothiazolopyrimidone inhibitor of the oncogenic protein tyrosine phosphatase SHP2” (Bioorg Med Chem, 2017).
# Residue numbers refer to the chain shown, from its start. The source made the active and inactive calls. The calls are words filed in the database; no cut-off is given here.
# How the values were obtained:
# MOLM-14 = assay: Antiproliferative activity against human MOLM14 cells after 3 days by CellTiter-Glo luminescence assay; assay type: functional, cell-based; conditions: for IC50: MOLM-14, 72 h
# A2058 = assay: Antiproliferative activity against human A2058 cells harboring BRAF V600E mutation at up to 2 uM after 3 days by CellTiter-Glo luminescence assay; assay type: functional, cell-based
# [1] = system: T1, Tyrosine-protein phosphatase non-receptor type 11 (Homo sapiens), Q06124 [F285S]; assay: Inhibition of SHP2 F285S mutant (1 to 525 residues) (unknown origin) expressed in Escherichia coli BL21(DE3) at up to 2 uM using DIFMUP as substrate preincubated for 30 mins followed by substrate addition by fluorescence assay
# T1 sequence (whole entry): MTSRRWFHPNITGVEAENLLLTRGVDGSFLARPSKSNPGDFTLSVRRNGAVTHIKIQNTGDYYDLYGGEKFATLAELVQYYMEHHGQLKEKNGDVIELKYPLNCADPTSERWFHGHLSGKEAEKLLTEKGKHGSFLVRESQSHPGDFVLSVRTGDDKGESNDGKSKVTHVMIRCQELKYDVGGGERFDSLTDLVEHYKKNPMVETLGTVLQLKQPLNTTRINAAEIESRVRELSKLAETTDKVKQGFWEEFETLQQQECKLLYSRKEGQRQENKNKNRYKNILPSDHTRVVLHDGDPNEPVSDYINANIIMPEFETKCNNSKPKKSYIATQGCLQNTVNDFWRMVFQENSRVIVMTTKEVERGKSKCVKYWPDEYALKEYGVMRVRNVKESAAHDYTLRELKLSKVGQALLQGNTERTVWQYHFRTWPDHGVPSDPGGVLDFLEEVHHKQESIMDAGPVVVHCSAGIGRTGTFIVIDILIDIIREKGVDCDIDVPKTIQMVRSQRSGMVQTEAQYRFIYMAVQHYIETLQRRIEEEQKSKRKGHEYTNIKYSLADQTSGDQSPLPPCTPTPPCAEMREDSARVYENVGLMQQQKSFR
# [2] = biological target: T2, Tyrosine-protein phosphatase non-receptor type 11 (Homo sapiens) (UniProt Q06124); assay: Inhibition of SHP2 PTP domain (1 to 525 residues) (unknown origin) expressed in Escherichia coli BL21(DE3) using DIFMUP as substrate preincubated for 30 mins followed by substrate addition by fluorescence assay
# T2 sequence (whole entry): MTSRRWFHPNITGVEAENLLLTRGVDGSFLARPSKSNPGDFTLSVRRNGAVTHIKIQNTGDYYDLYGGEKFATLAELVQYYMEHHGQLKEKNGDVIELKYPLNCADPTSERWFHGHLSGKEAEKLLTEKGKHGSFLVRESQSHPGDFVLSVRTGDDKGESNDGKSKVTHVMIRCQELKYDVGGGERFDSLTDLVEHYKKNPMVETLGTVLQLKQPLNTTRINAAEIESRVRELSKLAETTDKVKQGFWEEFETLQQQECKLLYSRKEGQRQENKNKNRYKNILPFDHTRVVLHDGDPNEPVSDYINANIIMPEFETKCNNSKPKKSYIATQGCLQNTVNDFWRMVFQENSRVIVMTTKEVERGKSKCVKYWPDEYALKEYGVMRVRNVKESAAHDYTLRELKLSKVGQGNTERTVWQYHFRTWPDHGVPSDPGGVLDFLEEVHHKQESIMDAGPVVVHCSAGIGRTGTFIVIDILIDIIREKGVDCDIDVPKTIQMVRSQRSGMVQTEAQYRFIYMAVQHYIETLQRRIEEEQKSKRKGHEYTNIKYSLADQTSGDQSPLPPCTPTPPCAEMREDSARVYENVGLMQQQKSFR
# [3] = system: T3, Tyrosine-protein phosphatase non-receptor type 11 (Homo sapiens), Q06124 [F285S,T253M,Q257L]; assay: Inhibition of SHP2 F285S/T253M/Q257L mutant (1 to 525 residues) (unknown origin) expressed in Escherichia coli BL21(DE3) using DIFMUP as substrate preincubated for 30 mins followed by substrate addition by fluorescence assay
# T3 sequence (whole entry): T1 sequence (whole entry) with T253M, Q257L
# [4] = system: T1, Tyrosine-protein phosphatase non-receptor type 11 (Homo sapiens), Q06124 [F285S]; assay: (§1) Inhibition of SHP2 F285S mutant (1 to 525 residues) (unknown origin) expressed in Escherichia coli BL21(DE3) using DIFMUP as substrate preincubated for 30 mins followed by substrate addition by fluorescence assay
# [5] = biological target: Tyrosine-protein phosphatase non-receptor type 11 (Homo sapiens, UniProt Q06124, F285S); assay: as §1
# [6] = biological target: T2, Tyrosine-protein phosphatase non-receptor type 11 (Homo sapiens); assay: Inhibition of SHP2 in human MOLM14 cells assessed as reduction in phospho-Erk levels at up to 400 uM after 2 hrs by Western blot analysis; assay type: cell-based
# [7] = biological target: T2, Tyrosine-protein phosphatase non-receptor type 11 (Homo sapiens); assay: Inhibition of wild-type SHP2 (1 to 525 residues) (unknown origin) expressed in Escherichia coli BL21(DE3) using DIFMUP as substrate preincubated for 30 mins followed by substrate addition by fluorescence assay
Compound,Activity (A2058),inhibition [1],IC50 (MOLM-14) [µM],other results
COc1ccc2c(c1)sc1nc(Cl)c(Cc3ccccc3)c(=O)n12,inactive,inactive,–,Activity (MOLM-14): inactive
CC1(N)CCN(c2cnc(-c3cccc(Cl)c3Cl)c(N)n2)CC1,inactive,–,0.9,–
COc1ccc2c(c1)sc1nc(O)c(Cc3ccccc3)c(=O)n12,–,40%,–,inhibition [2]: inactive; inhibition [3]: inactive; inhibition [4]: Dose-dependent effect; IC50 [5]: 10 µM
NCc1ccc2c(c1)sc1nc(O)c(Cc3ccccc3)c(=O)n12,inactive,–,–,–
O=c1c(Cc2ccccc2)c(O)nc2sc3cc(Cl)ccc3n12,inactive,60%,85,inhibition [6]: inactive; inhibition [7]: Active
